Measured values reported in patent US9187465B2, “Oxazole tyrosine kinase inhibitors” (Sareum Limited, priority 2007, dated 2015).
Counter-ions that a name gives are not always drawn.

Assays:
Format in all cases: biochemical
human FLT4 = molecular target: T1, human FLT4 (Homo sapiens, UniProt P35916); assay: FLT4 kinase assay (DELFIA enzyme inhibition); details: read-out: FLT4 IC50
T1 construct: a construct expressing the human FLT4 (789-1207) with an amino terminal GST tag; host or cells: Sf9 insect cells (baculovirus)
T1 sequence (P35916 789-1207): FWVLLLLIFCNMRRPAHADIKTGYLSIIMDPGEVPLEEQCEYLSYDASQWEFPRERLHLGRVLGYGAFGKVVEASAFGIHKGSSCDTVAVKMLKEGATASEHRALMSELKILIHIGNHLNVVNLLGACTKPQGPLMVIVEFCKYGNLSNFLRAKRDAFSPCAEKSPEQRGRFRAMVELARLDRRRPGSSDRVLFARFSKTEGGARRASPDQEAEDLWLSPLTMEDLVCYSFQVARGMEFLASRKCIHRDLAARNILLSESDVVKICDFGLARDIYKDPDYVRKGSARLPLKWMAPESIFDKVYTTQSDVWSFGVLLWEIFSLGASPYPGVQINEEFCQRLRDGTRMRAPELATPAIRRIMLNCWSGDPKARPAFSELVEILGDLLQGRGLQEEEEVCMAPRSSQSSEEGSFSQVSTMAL
Method in brief: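 GST-tagged human FLT4 (789-1207) from Sf9 cells phosphorylates a biotinylated MET (Tyr1253)-derived peptide for 30 min at room temperature, stopped with EDTA. Phosphopeptide is captured on Neutravidin and detected with Eu-labelled anti-phosphotyrosine antibody by time-resolved fluorescence; IC50 from % inhibition curves.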

human FLT3 = molecular target: T2, human FLT3 (Homo sapiens, UniProt P36888); assay: FLT3 kinase assay (DELFIA enzyme inhibition)
T2 construct: a construct expressing the human FLT3 (564-993) with an amino terminal GST tag; host or cells: Sf9 insect cells (baculovirus)
T2 sequence (P36888 564-993): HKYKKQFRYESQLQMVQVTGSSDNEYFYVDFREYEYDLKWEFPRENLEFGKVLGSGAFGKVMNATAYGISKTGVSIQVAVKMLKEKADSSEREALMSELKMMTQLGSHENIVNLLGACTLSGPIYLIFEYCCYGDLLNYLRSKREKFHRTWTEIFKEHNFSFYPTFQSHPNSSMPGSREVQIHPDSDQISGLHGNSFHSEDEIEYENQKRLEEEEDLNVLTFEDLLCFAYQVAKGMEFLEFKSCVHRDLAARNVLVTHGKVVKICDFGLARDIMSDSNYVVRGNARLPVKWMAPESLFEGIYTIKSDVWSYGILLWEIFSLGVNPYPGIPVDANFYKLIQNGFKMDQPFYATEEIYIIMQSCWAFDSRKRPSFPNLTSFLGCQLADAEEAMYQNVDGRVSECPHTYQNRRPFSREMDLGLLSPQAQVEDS
Method: A GST-kinase fusion protein of 70 KDa was produced using sf9 baculovirus expression system, with a construct expressing the human FLT3 (564-993) with an amino terminal GST tag. The protein was purified by one-step affinity chromatography using glutathione-agarose.
FLT3 enzyme activity is determined using a Dissociation Enhanced Lanthanide Fluorescent Immunoassay (DELFIA) with a peptide substrate derived from the Gastrin Precursor (Tyr 87) peptide […] with a core sequence: EAYGW.
The amount of phosphorylated peptide produced is detected by means of a phospho-Tyrosine specific Europium-labelled antibody using Time-Resolved Fluorescence at Excitation 360-35 nm and Emission 620-35 nm.
Assay reactions are set up in a 25 uL final volume on a 96 well plate. […] The reaction is allowed to proceed for 30 minutes at room temperature before stopping with 100 μL Stop solution comprising of 100 mM EDTA, 1×BSA blocker in TBS (Perbio) and 0.05% Surfact-Amps20 (Perbio).
The stopped reaction is transferred to a black 96-well Neutravidin-coated plate (Perbio) and incubated for 30 minutes to capture the biotinylated peptide substrate. After washing wells 3 times with 200 uL TBS/T buffer, Anti-Phospho-Tyr-100 antibody labelled with Eu—N1 (Perkin Elmer AD0159) is added to all wells for 60 minutes at room temperature. After a repeat washing step, DELFIA Enhancement solution (Perkin Elmer) is added to all wells for 5 minutes and the fluorescence measured on a plate reader Analyst HT (Molecular Devices).
The % inhibition of the activity is calculated and plotted in order to determine the concentration of test compound required to inhibit 50% of the enzyme activity (IC50).

human Aurora A = molecular target: T3, human Aurora A (Homo sapiens, UniProt O14965); assay: Aurora A kinase assay (DELFIA enzyme inhibition); details: read-out: Aurora A IC50
T3 construct: Histidine tag (N); host or cells: Sf9 insect cells (baculovirus)
T3 sequence (O14965 1-403): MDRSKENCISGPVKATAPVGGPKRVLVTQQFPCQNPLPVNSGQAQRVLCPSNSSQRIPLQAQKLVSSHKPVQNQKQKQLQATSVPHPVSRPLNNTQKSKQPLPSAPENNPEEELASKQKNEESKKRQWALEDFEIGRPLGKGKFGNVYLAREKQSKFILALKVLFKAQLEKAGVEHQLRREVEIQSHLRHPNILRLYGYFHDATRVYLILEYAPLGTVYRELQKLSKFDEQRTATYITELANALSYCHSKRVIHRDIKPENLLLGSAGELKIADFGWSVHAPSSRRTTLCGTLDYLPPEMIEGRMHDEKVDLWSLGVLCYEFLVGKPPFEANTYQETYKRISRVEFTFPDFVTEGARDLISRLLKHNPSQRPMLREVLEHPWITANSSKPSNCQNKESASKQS
Method in brief: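 DELFIA read-out (time-resolved Eu fluorescence, 620 nm emission) after Neutravidin capture of biotinylated peptide substrate and antibody detection. Reaction: Ni-agarose-purified Aurora A, 30 min at room temperature, stopped with 100 mM EDTA.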

Row | SMILES | IC50 (human FLT4) | IC50 (human FLT3) | IC50 (human Aurora A)
1 | COc1ccc(-c2nc(-c3c[nH]c4ccc(OC)cc34)[nH]c2C(N)=O)cc1 [Example B-2, 2-(5-methoxy-1H-indol-3-yl)-4-(4-methoxyphenyl)-1H-imidazole-5-carboxamide] | < 10 µM | < 10 µM | < 100 µM
2 | COc1ccc(-c2oc(-c3c[nH]c4ccccc34)nc2C(N)=O)cc1 [Example E-3, 2-(1H-indol-3-yl)-5-(4-methoxyphenyl)oxazole-4-carboxamide] | < 10 µM | < 100 µM | < 100 µM
3 | NC(=O)c1nc(-c2c[nH]c3ccccc23)oc1-c1cccs1 [Example E-4, 2-(1H-indol-3-yl)-5-(thiophen-2-yl)oxazole-4-carboxamide] | < 10 µM | < 100 µM | < 100 µM
4 | NC(=O)c1nc(-c2c(F)cccc2F)oc1-c1cccnc1 [Example F-9, 2-(2,6-difluorophenyl)-5-(pyridin-3-yl)oxazole-4-carboxamideH] | < 10 µM | < 100 µM | < 100 µM
5 | CN1CCN(Cc2ccc(-c3oc(-c4c(F)cccc4F)nc3C(N)=O)cc2)CC1 [Example F-10, 2-(2,6-difluorophenyl)-5-(4-((4-methylpiperazin-1-yl)methyl)phenyl)oxazole-4-carboxamide] | < 10 µM | < 100 µM | < 10 µM
6 | CC(=O)N1CCN(Cc2ccc(-c3oc(-c4c(F)cccc4F)nc3C(N)=O)cc2)CC1 [Example F-11, 5-(4-((4-acetylpiperazin-1-yl)methyl)phenyl)-2-(2,6-difluorophenyl)oxazole-4-carboxamide] | < 10 µM | < 100 µM | < 10 µM
7 | NC(=O)c1nc(-c2c(F)cccc2F)oc1-c1ccc(COCCN2CCOCC2)cc1 [Example F-12, 2-(2,6-difluorophenyl)-5-(4-((2-morpholinoethoxy)methyl)phenyl)oxazole-4-carboxamide] | < 10 µM | < 100 µM | < 10 µM
8 | NC(=O)c1nc(-c2c(F)cccc2F)oc1-c1ccc(OCCN2CCCCC2)cc1 [Example F-14, 2-(2,6-difluorophenyl)-5-(4-(2-(piperidin-1-yl)ethoxy)phenyl)oxazole-4-carboxamide] | < 10 µM | < 10 µM | < 10 µM
9 | CN(C)CCOc1ccc(-c2oc(-c3c(F)cccc3F)nc2C(N)=O)cc1 [Example F-15, 2-(2,6-difluorophenyl)-5-(4-(2-(dimethylamino)ethoxy)phenyl)oxazole-4-carboxamide] | < 10 µM | < 10 µM | < 10 µM
10 | NCc1ccc(-c2oc(-c3c(F)cccc3F)nc2C(N)=O)cc1 [Example F-16, 5-(4-(aminomethyl)phenyl)-2-(2,6-difluorophenyl)oxazole-4-carboxamide] | < 10 µM | < 100 µM | < 10 µM
11 | NC(=O)c1nc(-c2c(F)cccc2F)oc1-c1ccc(N2CCOCC2)nc1 [Example F-19, 2-(2,6-difluorophenyl)-5-(6-morpholinopyridin-3-yl)oxazole-4-carboxamide] | < 100 µM | < 100 µM | 
12 | NC(=O)c1nc(-c2c(F)cccc2F)oc1-c1ccc(N)cc1 [Example F-22, 5-(4-aminophenyl)-2-(2,6-difluorophenyl)oxazole-4-carboxamide] | < 10 µM | < 10 µM | < 10 µM
13 | NC(=O)c1nc(-c2c(F)cccc2Cl)oc1-c1ccc(OCCN2CCCCC2)cc1 [Example F-24, 2-(2-chloro-6-fluorophenyl)-5-(4-(2-(piperidin-1-yl)ethoxy)phenyl)oxazole-4-carboxamide] | < 10 µM | < 10 µM | < 10 µM
14 | NC(=O)c1nc(-c2c(Cl)cccc2Cl)oc1-c1ccc(OCCN2CCCCC2)cc1 [Example F-25, 2-(2,6-dichlorophenyl)-5-(4-(2-(piperidin-1-yl)ethoxy)phenyl)oxazole-4-carboxamide] | < 10 µM | < 10 µM | < 10 µM
15 | NC(=O)c1nc(-c2ccccc2F)oc1-c1ccc(OCCN2CCCCC2)cc1 [Example F-26, 2-(2-fluorophenyl)-5-(4-(2-(piperidin-1-yl)ethoxy)phenyl)oxazole-4-carboxamide] | < 10 µM | < 10 µM | < 10 µM
16 | NC(=O)c1nc(-c2ccccc2F)oc1-c1ccc(OCCN2CCOCC2)cc1 [Example F-27, 2-(2-fluorophenyl)-5-(4-(2-morpholinoethoxy)phenyl)oxazole-4-carboxamide] | < 10 µM | < 10 µM | < 10 µM
17 | NC(=O)c1nc(-c2c(F)cccc2F)oc1-c1ccc(CN2CCNCC2)cc1 [Example G-1, 2-(2,6-difluorophenyl)-5-(4-(piperazin-1-ylmethyl)phenyl)oxazole-4-carboxamide] | < 10 µM | < 100 µM | < 10 µM
18 | NC(=O)c1nc(-c2c(F)cccc2F)oc1-c1ccc(N2CCNCC2)nc1 [Example G-2, 2-(2,6-difluorophenyl)-5-(6-(piperazin-1-yl)pyridin-3-yl)oxazole-4-carboxamide dihydrochloride] | < 10 µM | < 10 µM | < 10 µM

Other lines, results leading:

Row | IC50 (human FLT4) | IC50 (human FLT3) | IC50 (human Aurora A) | SMILES
19 | < 10 µM | < 100 µM |  | COc1ccc(-c2oc(-c3ccccc3)nc2C(N)=O)cc1 [Example M-2, 5-(4-methoxyphenyl)-2-phenyloxazole-4-carboxamide]
20 | < 100 µM | < 100 µM |  | COc1ccc(-c2oc(-c3ccc(C#N)cc3)nc2C(N)=O)cc1 [Example M-9, 2-(4-cyanophenyl)-5-(4-methoxyphenyl)oxazole-4-carboxamide]
21 | < 10 µM | < 100 µM |  | COc1ccc(-c2oc(-c3cccc(NC(C)=O)c3)nc2C(N)=O)cc1 [Example N-3, 2-(3-acetamidophenyl)-5-(4-methoxyphenyl)oxazole-4-carboxamide]
22 |  | < 100 µM | < 100 µM | COc1ccc(-c2oc(-c3cccc(C(F)(F)F)c3)nc2C(N)=O)cc1 [Example N-8, 5-(4-methoxyphenyl)-2-(3-(trifluoromethyl)phenyl)oxazole-4-carboxamide]
23 | < 10 µM | < 10 µM |  | COc1ccc(Nc2oc(-c3c(F)cccc3F)nc2C(N)=O)cc1 [Example P-1, 2-(2,6-difluorophenyl)-5-(4-methoxyphenylamino)oxazole-4-carboxamide]
24 |  | < 10 µM | < 10 µM | NC(=O)c1nc(-c2c(F)cccc2F)oc1Nc1ccc(N2CCOCC2)cc1 [Example Q-1, 2-(2,6-difluorophenyl)-5-(4-morpholinophenylamino)oxazole-4-carboxamide]
25 |  | < 10 µM | < 100 µM | COc1ccc(-c2oc(Nc3cccc(OC)c3)nc2C(N)=O)cc1 [Example R-3, 5-(4-methoxyphenyl)-2-(3-methoxyphenylamino)oxazole-4-carboxamide]
26 |  | < 100 µM | < 100 µM | CN1CCN(CCOc2ccc(-c3oc(-c4c(F)cccc4N4CCN(C)CC4)nc3C(N)=O)cc2)CC1 [Example S-2, 2-(2-fluoro-6-(4-methylpiperazin-1-yl)phenyl)-5-(4-(2-(4-methylpiperazin-1-yl)ethoxy)phenyl)oxazole-4-carboxamide]
